Article PMC8999917, “Structure–Activity Relationship of Synthetic Ginkgolic Acid Analogs for Treating Type 2 Diabetes by PTPN9 Inhibition” (International Journal of Molecular Sciences, 2022)

How the values were obtained:
[1] = molecular target: T1, DUSP9 (Homo sapiens, UniProt Q99956); assay: DUSP9 enzyme inhibition with DiFMUP substrate; assay type: biochemical; settings: DiFMUP 90 µM, DUSP9 200 nM; NA: no activity
T1 construct: made in house; host or cells: Escherichia coli Rosetta (DE3)
T1 sequence (Q99956 1-384): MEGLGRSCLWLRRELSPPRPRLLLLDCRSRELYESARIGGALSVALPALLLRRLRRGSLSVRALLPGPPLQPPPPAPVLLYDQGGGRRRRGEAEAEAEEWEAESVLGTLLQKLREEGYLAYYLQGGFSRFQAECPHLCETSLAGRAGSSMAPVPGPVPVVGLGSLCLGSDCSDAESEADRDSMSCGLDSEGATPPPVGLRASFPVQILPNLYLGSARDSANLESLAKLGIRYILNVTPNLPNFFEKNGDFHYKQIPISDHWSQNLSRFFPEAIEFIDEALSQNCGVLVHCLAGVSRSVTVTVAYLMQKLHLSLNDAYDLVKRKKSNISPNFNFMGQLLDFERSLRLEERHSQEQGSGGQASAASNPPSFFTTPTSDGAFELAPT
Protocol: (§1) The purification and kinetic analyses of PTPN9 and DUSP9 (Ser277–581) were performed following methods described in the literature, with slight modifications. PAGE analysis data and enzyme kinetic constants are presented in Figure S1 and Table S1, respectively. Enzyme activity in the presence or absence of the compounds was measured using DiFMUP, a representative PTP fluorogenic substrate. First, the inhibitory effects of compounds 1–3 were evaluated using 50 µM PTPN9 and 20 µM DUSP9. There was an increase in the inhibitory activity of compound 1 for both enzymes as the number of CH2 units increased from 9 to 14 (Figure 2A,B).
(§2) Next, the IC50 values of the compounds, which induce a 50% inhibition of DiFMUP hydrolytic enzyme activity, were determined (Table 1). The IC50 values were determined from the dose–response enzyme inhibition curves of each compound. The dose–response curves for compounds 1e and 1f against PTPN9 and DUSP9, respectively, are presented in Figure 2C,D. Dose–response curves were also obtained for the other compounds (Figures S2 and S3).
(§3) The methods employed for PTP overexpression and purification have been described in a previous study. In brief, human PTPN9 and DUSP9 were cloned into a pET28a vector (Merk Millipore, Darmstadt, Germany) containing a hexahistidine (His6) tag or a maltose-binding protein (MBP) tag in its N-terminus (see Supplementary Materials). Recombinant genes were separately transformed into Escherichia coli Rosetta (DE3) (Merk Millipore, Darmstadt, Germany), and the overexpression of each gene was induced via the addition of 0.1 mM IPTG (Ducherfa Biochemie, Haarlem, RV, USA). After 16 h of incubation at 18 °C, cell pellets were obtained via centrifugation (3570× g at 4 °C for 15 min), resuspended in lysis buffer (50 mM Tris, pH: 7.5, 500 mM NaCl, 5% glycerol, 0.025% 2-mercaptoethanol, and 1 mM phenyl-methylsulfonyl fluoride (PMSF)), and lysed by ultrasonication. Subsequently, cell lysates were centrifuged at 29,820× g for 30 min at 4 °C; then, the supernatant was collected and incubated with a cobalt affinity resin (TALON® Metal Affinity Resin, Takara Korea, Seoul, Korea). After 1 h of incubation at 4 °C, the desired proteins were eluted by adding the lysis buffer supplemented with 100 mM imidazole. Samples were stored at –80 °C until use.
(§4) The enzymatic activities of purified PTPN9 and DUSP9 were measured using 6,8-difluoro-4-methylumbelliferyl phosphate (DiFMUP), the most widely used fluorogenic PTP substrate in the literature. To determine KM values, PTPN9 (0.15 nM) and DUSP9 (200 nM) were added to a reaction buffer (20 mM Bis-tris, pH: 7.0, 150 mM NaCl, 2.5 mM dithiothreitol (DTT), and 0.01% Triton X-100) containing DiFMUP (800, 400, 200, 100, 50, 25, 12.5, or 6.25 μM) in a 96-well black plate. The final reaction volume was 100 µL. The fluorescence intensity was continuously monitored for 10 min (Ex/Em = 355/460 nm) on a Victor™ X4 multilabel plate reader (Perkin Elmer, Norwalk, CT, USA). KM values were obtained using Lineweaver–Burk plots analysis.
(§5) To evaluate the enzyme inhibitory effects of GA and its analogs, 10 µl of the enzyme stock solution (1.5 nM PTPN9 and 2 µM DUSP9) in the reaction buffer was added into the mixture of DiFMUP (to a final concentration of 220 µM and 90 µM for PTPN9 and DUSP9, respectively) and each compound (to a final concentration of 50 µM and 20 µM for PTPN9 and DUSP9, respectively) was added to the reaction buffer. Enzyme activity was measured as described above. Half-inhibitory concentration (IC50) values were determined under similar conditions, except for the concentrations of the inhibitors (200, 100, 50, 25, 12.5, 6.25, or 3.125 µM for PTPN9 and 25, 12.5, 6.25, 3.125, 1.563, 0.782, or 0.391 µM for DUSP9). The dose-dependent curve was fitted to the four-parameter logistic regression equation, (y = a + (b – a)/(1 + (x/c)^d), to obtain IC50 values using the Kaleida Graph software Ver. 4.1.3. (Synergy Software Inc, PA, USA).

[2] = molecular target: T2, PTPN9 (Homo sapiens, UniProt P43378); assay: PTPN9 enzyme inhibition with DiFMUP substrate; assay type: biochemical; settings: DiFMUP 220 µM, PTPN9 0.15 nM; NA: no activity
T2 construct: made in house; host or cells: Escherichia coli Rosetta (DE3)
T2 sequence (P43378 277-581): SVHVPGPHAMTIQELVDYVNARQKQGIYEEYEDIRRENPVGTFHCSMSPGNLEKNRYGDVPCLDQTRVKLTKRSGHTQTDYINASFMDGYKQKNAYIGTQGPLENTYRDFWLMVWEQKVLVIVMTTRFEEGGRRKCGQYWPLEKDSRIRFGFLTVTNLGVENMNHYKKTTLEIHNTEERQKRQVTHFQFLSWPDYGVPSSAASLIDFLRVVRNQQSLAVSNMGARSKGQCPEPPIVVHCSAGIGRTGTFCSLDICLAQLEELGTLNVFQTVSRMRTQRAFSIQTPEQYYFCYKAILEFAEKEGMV
Protocol: as §1, §2, §3, §4, §5

[3] = molecular target: T1, DUSP9; assay: Kinetics of DiFMUP hydrolysis by DUSP9; assay type: biochemical; settings: [E] 200.0 nM
Protocol: (§6) The purification and kinetic analyses of PTPN9 and DUSP9 (Ser277–581) were performed following methods described in the literature, with slight modifications. […] Enzyme activity in the presence or absence of the compounds was measured using DiFMUP, a representative PTP fluorogenic substrate.
as §4

[4] = molecular target: T2, PTPN9; assay: Kinetics of DiFMUP hydrolysis by PTPN9; assay type: biochemical; settings: [E] 0.15 nM
Protocol: as §6, §4

[5] = system: 3T3-L1 adipocytes; assay: 2-NBDG glucose uptake assay in differentiated 3T3-L1 adipocytes; assay type: cell-based, mouse; settings: 100 nM
Protocol: PTPN9 inhibitors have been reported to increase glucose uptake. To clarify the antidiabetic effects of GA analogs, a 2-NBDG (a fluorescent glucose probe) uptake assay was performed using differentiated 3T3-L1 adipocytes and C2C12 myotubes. After 16 h of starvation, differentiated 3T3-L1 adipocytes were incubated with compounds 1e and 1f for another 1 h. The cells were subsequently incubated with 2-NBDG for 30 min and washed with PBS before quantifying the fluorescence of 2-NBDG taken up by the cells. The 2-NBDG uptake-increasing effects of GA and its analogs in 3T3-L1 cells were monitored via confocal microscopy. The blank group was set in the absence of 2-NBDG but was treated with DMSO to determine the basal fluorescence levels in 3T3-L1 adipocytes (Figure 4A, Basal); in the negative control group, 3T3-L1 adipocytes were treated with 2-NBDG and DMSO for the evaluation of basal glucose uptake levels (Figure 4A, DMSO). […] Furthermore, to quantify 2-NBDG uptake, fluorescence intensity (Ex/Em = 485/535 nm) was measured using a plate reader. […] After incubation, the cells were washed with pre-cold PBS, and the fluorescence intensity was measured using a fluorescence microplate reader (Victor^TM X4, PerkinElmer, Waltham, MA, USA) (Ex/Em = 485/535 nm). […]

Compound | IC50 [1] [µM] | IC50 [2] [µM] | further results
CCCCCCCCCCCCCOc1ccc(C(=O)O)c(O)c1 [Compound 2] | 5.27 ± 0.07 | 69.3 ± 6.22 | 
Cc1cc(=O)oc2c(F)c(OP(=O)(O)O)c(F)cc12 [DiFMUP, 6,8-difluoro-4-methylumbelliferyl phosphate] |  |  | Km [3]: 45 µM; Vmax [3]: 1.65 μMmin-1; kcat [3]: 0.138 s⁻¹; Km [4]: 110 µM; Vmax [4]: 1.73 μMmin-1
CCCCCCCCCCCCCOc1ccc(O)c(C(=O)O)c1 [Compound 3] | 4.68 ± 0.06 | 36.5 ± 1 | 
Insulin: positive control (100 nM) in the 2-NBDG uptake assay |  |  | 2-NBDG uptake (positive control) [5]: significantly stimulated 2-NBDG uptake

Now from value to compound, other results behind:

IC50 [1] [µM] | IC50 [2] [µM] | Compound | further results
23.9 ± 0.65 | 77.1 ± 0.78 | CCCCCCCCCCCOc1cccc(O)c1C(=O)O [Compound 1c] | 
8.61 ± 0.66 | 28.54 ± 0.1 | CCCCCCCCCCCCOc1cccc(O)c1C(=O)O [Compound 1d] | 
